Legend:
CYP2D6 and FMO3 = format: in vitro ADME; conditions: human
Text: (§1) Therefore any variation of (R)-3-((E)-2-(pyrrolidin-3-yl)vinyl)-5-(tetrahydropyran-4-yloxy)pyridine or a salt thereof metabolism in human due to CYP polymorphism is expected to be less than 2 fold due to the significant renal clearance and low hepatic clearance.

[1] = format: in vitro ADME; conditions: human
Text: as §1

[2] = biological target: T1, human native muscle-type nicotinic receptors (likely α1β1γδ) (Homo sapiens, UniProt P02708+P07510+Q07001); experiment: [3H]epibatidine binding, TE-671 membranes
T1 construct: human native muscle-type nicotinic receptors (likely α1β1γδ); endogenous in cells; host or cells: TE-671 (TE671/RD)

[3] = biological target: T2, human recombinant α4β2 nicotinic receptors (Homo sapiens, UniProt P17787+P43681); experiment: Radioligand binding, human recombinant α4β2 in SH-EP1 cellular membranes
T2 construct: expressed in transfected cells; host or cells: SH-EP1
Method: Preparation of membranes from SH-EP1/human α4β2 clonal cells: Cell pellets from 40 150 mm culture dishes were pooled, and homogenized by Polytron (Kinematica GmbH, Switzerland) in 20 milliliters of ice-cold preparative buffer. […] The resulting pellet was re-suspended in 20 mL of ice-cold preparative buffer and stored at −20° C.
Assay. On the day of the assay, the frozen membranes were thawed and spun at 48,000×g for 20 min. The supernatant was decanted and discarded. The pellet was resuspended in Dulbecco's phosphate buffered saline (PBS, Life Technologies) pH 7.4 and homogenized with the Polytron for 6 seconds. Protein concentrations were determined using a Pierce BCA Protein Assay Kit, with bovine serum albumin as the standard (Pierce Chemical Company, Rockford, Ill.).
Incubation was terminated by rapid filtration on a multi-manifold tissue harvester (Brandel, Gaithersburg, Md.) using GF/B filters presoaked in 0.33% polyethyleneimine (w/v) to reduce non-specific binding. Tissue was rinsed 3 times in PBS, pH 7.4. […] Filters were then counted to determine radioactivity bound to the membranes by liquid scintillation counting (2200CA Tri-Carb LSC, Packard Instruments, 50% efficiency or Wallac Trilux 1450 MicroBeta, 40% efficiency, Perkin Elmer).
Data were expressed as disintegrations per minute (DPMs). […]

normal rats = experiment: Novel object recognition (NOR); format: in vivo, rat; conditions: for NOR duration of statistically significant effect after dosing: dose 0.004 μM/kg (0.004 μmol/kg oral), FIG. 2
Method: Memory was assessed by using a three-trial novel object recognition test (Luine et al., Pharm. Biochem. Behav. 74, 213-220 (2002)). On the first day (exploratory trial), rats were allowed to explore an open arena (44.5×44.5×30.5 cm) for 6 min. On the second day (acquisition trial), rats were allowed to explore the same arena in the presence of two identical objects (both object A) for 3 min. On the third day (retention or recall trial), performance was evaluated by allowing the same animal to re-explore the arena for 3 min in the presence of two different objects: the familiar object A and a novel object B. An inter-trial interval of 24 h was imposed between the three NOR trials. Recognition memory was assessed by comparing the time spent exploring a novel (object B) versus a familiar (object A) object during the recall trial. Recognition index was assessed for each animal and expressed as a ratio ((time B/time A+time B)×100).
(R)-3-((E)-2-(Pyrrolidin-3-yl)vinyl)-5-(tetrahydropyran-4-yloxy)pyridine or a salt thereof improved long-term visual episodic/declarative memory as assessed by novel object recognition (NOR) task following oral dosing in normal rats. […] In the two “recall only” sessions; subset of animals were orally dosed with water on day 1 (i.e., exploratory session) and day 2 (i.e., acquisition session) and then orally dosed either with 1.1 μmol/kg (R)-3-((E)-2-(pyrrolidin-3-yl)vinyl)-5-(tetrahydropyran-4-yloxy)pyridine or a salt thereof (left panel) or 0.04 μmol/kg (right panel) on day 3 (i.e., recall session). […] In the Figure, the dashed line at 65% denotes subjective criteria for biological cognitive enhancing activity. *P<0.05.
(R)-3-((E)-2-(Pyrrolidin-3-yl)vinyl)-5-(tetrahydropyran-4-yloxy)pyridine or a salt thereof was evaluated for its duration of effect in the NOR task in normal rats. […] In the Figure, the dashed line at 65% denotes subjective criteria for biological cognitive enhancing activity (*P<0.05).

CYP2D6 = CYP2D6 (Homo sapiens, UniProt P10635); experiment: biochemical; format: in vitro ADME
Method: (§2) Inhibition of CYP1A2, CYP2C9, CYP2C19, CYP2D6 and CYP3A4 catalytic activity by (R)-3-((E)-2-(pyrrolidin-3-yl)vinyl)-5-(tetrahydropyran-4-yloxy)pyridine or a slat thereof was assessed using a fluorogenic CYP assay. Probe substrates which fluoresce upon CYP catalyzed oxidation were used to evaluate the degree of inhibition of the test substrate. A single concentration of each probe substrate (at approximately the apparent Km value) and two different concentrations of (R)-3-((E)-2-(pyrrolidin-3-yl)vinyl)-5-(tetrahydropyran-4-yloxy)pyridine hemigalactarate (2 and 20 μM) were tested in duplicate. Fluorescence intensity at selected wavelengths was used as a measure of enzyme activity. Decreased fluorescence in the presence of (R)-3-((E)-2-(pyrrolidin-3-yl)vinyl)-5-(tetrahydropyran-4-yloxy)pyridine or a sat thereof was an indication of inhibition. […] Duplicate samples were run alongside the positive and negative controls. Incubation of test samples was performed at 37° C. Experimental parameters are outlined in Table 2.

CYP2C9 = CYP2C9 (Homo sapiens, UniProt P11712); experiment: biochemical; format: in vitro ADME
Method: as §2

CYP2C19 = CYP2C19 (Homo sapiens, UniProt P33261); experiment: biochemical; format: in vitro ADME
Method: as §2

CYP3A4 = CYP3A4 (Homo sapiens, UniProt P08684); experiment: biochemical; format: in vitro ADME
Method: as §2

CYP1A2 = CYP1A2 (Homo sapiens, UniProt P05177); experiment: biochemical; format: in vitro ADME
Method: as §2

[4] = human
Text: as §1

[5] = tested on: neuronal nicotinic receptors (α-BnTx insensitive); experiment: Multiple receptor screening assay, nicotinic receptor; format: binding; conditions: single concentration of 10 μM
Method: (R)-3-((E)-2-(Pyrrolidin-3-yl)vinyl)-5-(tetrahydropyran-4-yloxy)pyridine or a salt thereof was tested for selectivity against a panel of 65 receptors.

Chain of CYP2C19 (P33261 whole entry): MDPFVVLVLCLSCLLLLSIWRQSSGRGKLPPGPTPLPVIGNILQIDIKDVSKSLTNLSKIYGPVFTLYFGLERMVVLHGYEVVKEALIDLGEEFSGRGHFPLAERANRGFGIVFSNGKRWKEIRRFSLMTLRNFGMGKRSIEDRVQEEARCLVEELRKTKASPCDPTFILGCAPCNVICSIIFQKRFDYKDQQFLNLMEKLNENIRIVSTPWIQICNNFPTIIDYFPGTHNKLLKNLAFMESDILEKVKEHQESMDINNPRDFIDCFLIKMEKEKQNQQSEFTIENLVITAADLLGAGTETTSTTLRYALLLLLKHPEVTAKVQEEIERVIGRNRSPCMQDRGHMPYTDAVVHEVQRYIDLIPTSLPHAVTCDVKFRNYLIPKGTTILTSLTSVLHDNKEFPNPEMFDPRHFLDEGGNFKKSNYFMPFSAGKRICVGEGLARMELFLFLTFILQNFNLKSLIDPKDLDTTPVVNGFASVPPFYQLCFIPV
Chain of CYP3A4 (P08684 whole entry): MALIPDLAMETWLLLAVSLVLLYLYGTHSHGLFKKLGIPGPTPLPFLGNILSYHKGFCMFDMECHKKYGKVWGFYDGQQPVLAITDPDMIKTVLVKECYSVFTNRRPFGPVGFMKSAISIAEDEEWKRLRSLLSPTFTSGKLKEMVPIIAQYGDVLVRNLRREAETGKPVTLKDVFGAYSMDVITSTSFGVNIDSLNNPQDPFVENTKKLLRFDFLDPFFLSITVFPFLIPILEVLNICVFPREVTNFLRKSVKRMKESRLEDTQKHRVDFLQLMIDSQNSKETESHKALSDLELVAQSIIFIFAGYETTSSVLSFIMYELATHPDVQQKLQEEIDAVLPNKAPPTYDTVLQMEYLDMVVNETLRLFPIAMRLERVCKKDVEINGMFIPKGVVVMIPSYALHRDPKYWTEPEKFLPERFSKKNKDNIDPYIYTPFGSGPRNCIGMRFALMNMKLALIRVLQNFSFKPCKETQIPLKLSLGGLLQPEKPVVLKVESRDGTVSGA
T1 sequence (P07510 23-517): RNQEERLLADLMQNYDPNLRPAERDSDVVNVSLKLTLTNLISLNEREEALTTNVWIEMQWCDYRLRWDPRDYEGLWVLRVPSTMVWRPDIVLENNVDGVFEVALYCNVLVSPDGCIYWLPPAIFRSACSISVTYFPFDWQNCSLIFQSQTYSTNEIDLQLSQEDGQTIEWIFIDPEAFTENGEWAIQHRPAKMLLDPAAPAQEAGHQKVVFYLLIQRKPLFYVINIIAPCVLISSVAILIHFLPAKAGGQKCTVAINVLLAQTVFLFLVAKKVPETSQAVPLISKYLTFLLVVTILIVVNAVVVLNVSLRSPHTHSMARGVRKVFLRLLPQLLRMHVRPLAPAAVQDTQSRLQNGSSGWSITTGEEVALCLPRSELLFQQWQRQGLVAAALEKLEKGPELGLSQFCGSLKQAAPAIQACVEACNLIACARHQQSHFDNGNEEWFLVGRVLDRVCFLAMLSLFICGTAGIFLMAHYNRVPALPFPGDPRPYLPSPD
T1 sequence (Q07001 22-517): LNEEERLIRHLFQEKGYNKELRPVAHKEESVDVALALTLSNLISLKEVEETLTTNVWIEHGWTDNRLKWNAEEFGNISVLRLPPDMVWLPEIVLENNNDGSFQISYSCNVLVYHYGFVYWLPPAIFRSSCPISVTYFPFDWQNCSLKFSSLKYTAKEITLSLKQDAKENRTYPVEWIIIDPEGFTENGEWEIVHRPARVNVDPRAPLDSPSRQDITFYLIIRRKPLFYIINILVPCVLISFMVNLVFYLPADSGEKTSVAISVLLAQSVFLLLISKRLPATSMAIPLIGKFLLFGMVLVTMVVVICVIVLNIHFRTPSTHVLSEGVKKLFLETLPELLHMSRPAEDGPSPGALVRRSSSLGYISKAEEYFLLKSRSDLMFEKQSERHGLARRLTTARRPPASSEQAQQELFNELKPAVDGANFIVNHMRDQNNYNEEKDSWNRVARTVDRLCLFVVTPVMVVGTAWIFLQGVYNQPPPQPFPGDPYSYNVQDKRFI
T1 sequence (P02708 21-457): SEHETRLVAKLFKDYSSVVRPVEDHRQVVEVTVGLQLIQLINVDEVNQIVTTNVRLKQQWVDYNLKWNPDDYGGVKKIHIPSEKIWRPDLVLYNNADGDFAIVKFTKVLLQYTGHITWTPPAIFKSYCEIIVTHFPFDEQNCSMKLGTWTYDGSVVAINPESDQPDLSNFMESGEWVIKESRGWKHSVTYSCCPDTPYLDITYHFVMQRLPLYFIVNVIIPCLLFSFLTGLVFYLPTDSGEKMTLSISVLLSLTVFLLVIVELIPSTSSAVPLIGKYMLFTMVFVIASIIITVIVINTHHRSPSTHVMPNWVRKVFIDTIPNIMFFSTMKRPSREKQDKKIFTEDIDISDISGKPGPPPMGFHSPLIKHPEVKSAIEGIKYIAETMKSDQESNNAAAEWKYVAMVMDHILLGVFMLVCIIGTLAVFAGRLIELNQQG
T1 sequence (P11230 24-501, further chain): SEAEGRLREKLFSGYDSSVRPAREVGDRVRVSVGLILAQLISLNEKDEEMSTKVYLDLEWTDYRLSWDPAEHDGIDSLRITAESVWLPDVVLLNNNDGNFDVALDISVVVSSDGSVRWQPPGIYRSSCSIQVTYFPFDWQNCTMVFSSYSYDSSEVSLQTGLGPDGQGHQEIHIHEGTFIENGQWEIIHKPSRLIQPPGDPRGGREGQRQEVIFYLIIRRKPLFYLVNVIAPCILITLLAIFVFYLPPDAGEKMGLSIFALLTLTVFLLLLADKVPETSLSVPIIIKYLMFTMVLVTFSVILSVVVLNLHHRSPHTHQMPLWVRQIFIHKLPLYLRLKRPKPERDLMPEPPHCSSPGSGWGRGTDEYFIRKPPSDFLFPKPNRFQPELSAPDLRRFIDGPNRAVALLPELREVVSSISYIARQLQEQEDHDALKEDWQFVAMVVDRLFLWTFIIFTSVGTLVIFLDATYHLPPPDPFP
Chain of CYP2D6 (P10635 whole entry): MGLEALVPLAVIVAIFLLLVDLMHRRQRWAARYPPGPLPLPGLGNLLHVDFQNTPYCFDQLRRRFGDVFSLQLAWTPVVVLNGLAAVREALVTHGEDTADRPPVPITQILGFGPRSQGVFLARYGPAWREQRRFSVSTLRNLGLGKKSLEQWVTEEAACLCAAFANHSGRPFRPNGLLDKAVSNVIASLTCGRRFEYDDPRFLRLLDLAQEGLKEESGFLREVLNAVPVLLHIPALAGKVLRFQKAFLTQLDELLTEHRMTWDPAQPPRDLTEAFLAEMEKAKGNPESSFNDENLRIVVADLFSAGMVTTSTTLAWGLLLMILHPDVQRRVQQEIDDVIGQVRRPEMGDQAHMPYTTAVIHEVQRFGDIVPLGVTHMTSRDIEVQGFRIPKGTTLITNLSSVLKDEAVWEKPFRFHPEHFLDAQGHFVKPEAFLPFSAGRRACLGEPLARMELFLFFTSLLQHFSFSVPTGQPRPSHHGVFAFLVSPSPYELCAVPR
Chain of CYP2C9 (P11712 whole entry): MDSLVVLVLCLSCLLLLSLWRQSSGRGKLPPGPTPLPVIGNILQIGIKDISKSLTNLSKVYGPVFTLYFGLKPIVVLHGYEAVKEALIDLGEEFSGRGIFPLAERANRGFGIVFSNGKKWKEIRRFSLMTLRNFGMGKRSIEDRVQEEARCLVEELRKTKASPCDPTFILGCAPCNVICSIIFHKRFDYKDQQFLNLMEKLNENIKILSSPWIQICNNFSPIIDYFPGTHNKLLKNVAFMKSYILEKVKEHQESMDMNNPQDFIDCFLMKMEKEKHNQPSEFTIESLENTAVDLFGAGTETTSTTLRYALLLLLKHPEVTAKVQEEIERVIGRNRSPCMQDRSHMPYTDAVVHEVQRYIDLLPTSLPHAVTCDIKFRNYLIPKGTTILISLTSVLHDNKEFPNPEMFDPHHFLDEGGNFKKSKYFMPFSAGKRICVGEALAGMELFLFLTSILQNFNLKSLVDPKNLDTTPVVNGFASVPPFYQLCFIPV
Chain of CYP1A2 (P05177 whole entry): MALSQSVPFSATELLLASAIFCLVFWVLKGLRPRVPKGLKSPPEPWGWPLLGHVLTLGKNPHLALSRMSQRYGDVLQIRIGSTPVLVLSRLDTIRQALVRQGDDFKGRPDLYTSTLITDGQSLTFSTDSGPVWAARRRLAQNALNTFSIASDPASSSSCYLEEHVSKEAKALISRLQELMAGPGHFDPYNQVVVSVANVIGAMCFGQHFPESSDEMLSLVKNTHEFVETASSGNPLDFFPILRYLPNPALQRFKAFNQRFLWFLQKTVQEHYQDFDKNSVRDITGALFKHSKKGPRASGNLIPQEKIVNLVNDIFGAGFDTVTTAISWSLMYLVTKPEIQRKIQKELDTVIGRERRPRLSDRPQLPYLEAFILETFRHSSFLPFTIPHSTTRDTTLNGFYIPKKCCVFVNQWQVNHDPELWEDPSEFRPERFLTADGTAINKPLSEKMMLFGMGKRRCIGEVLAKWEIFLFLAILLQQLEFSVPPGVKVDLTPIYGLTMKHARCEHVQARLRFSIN

C(=C\[C@H]1CCNC1)/c1cncc(OC2CCOCC2)c1 [Compound A, (R)-3-((E)-2-(pyrrolidin-3-yl)vinyl)-5-(tetrahydropyran-4-yloxy)pyridine]
enzymes contributing to metabolism (CYP2D6 and FMO3): both CYP2D6 and FMO3 contributed to the metabolism
hepatic turnover rate [1]: low hepatic turnover rate
Ki [2]: 25 µM
Ki [3]: 2 nM
NOR recognition index (normal rats; 0.004 μmol/kg oral, 0.5 h after dosing): 72±2%
NOR recognition index (normal rats; 0.004 μmol/kg oral, 6 h after dosing): 70±3%
NOR recognition index (normal rats; 0.004 μmol/kg oral, 8 h after dosing): 70±4%
NOR recognition index (normal rats; 0.04 μmol/kg oral, normal rats, 24 h after acquisition trial): 71±2%
NOR recognition index (normal rats; 1.1 μmol/kg oral, normal rats, 24 h after acquisition trial): 61±3%
NOR lowest dose with statistically significant effect (normal rats; FIG. 1): ≥ 0.004 µM/kg
NOR duration of statistically significant effect after dosing (normal rats): ≤ 8 h
NOR duration of statistically significant effect after dosing (normal rats; listed as (R)-3-((E)-2-(pyrrolidin-3-yl)vinyl)-5-(tetrahydropyran-4-yloxy)pyridine): up to 8 h
NOR duration of statistically significant effect after dosing (normal rats; listed as Formula I): ≤ 8 h
NOR minimum effect dose (MED) (normal rats; oral, follow-up NOR study, rats): 0.004 µmol/kg
NOR recognition index, recall only sessions (normal rats; single oral administration on day 3, 1.1 μmol/kg or 0.04 μmol/kg): significantly above controls
IC50 (CYP2D6): > 20 µM
IC50 (CYP2C9): > 20 µM
IC50 (CYP2C19): > 20 µM
IC50 (CYP3A4): > 20 µM
IC50 (CYP1A2): > 20 µM
renal clearance share of total clearance [4]: more than 50%
inhibition of binding of labelled ligand [5]: 99%
